Test system: ARR6
Experiment: qRT-PCR of cytokinin responsive gene after BA pulse, fold change vs untreated wild type
Format: cell-based, Arabidopsis thaliana
Procedure: For quantitative real-time PCR (qRT-PCR) analysis of cytokinin-inducible gene expression, seeds were germinated on MS medium with 3% (w/v) sucrose and grown for 6 days. Cytokinin treatment was carried out by incubating seedlings in the same MS+sucrose liquid medium (no agar) supplemented with 0, 0.01, 0.1, 1 or 5 μM [solubilized in 0.1% dimethylsulfoxide (DMSO) and diluted with the MS medium] for 5 min, 15 min, 30 min or 1 h. The control seedlings were incubated with DMSO (0.1%, the concentration used to dissolve cytokinins for the treatment) for the corresponding durations and used for expression analysis. Before RNA preparation, WT, OE and AS seedlings were pooled and stored in RNAlater solution (Qiagen, Valencia, Calif.). Total RNA was extracted using the Rneasy Plant Mini Kit (Qiagen). SYBRgreen RT-PCR reagents (Applied Biosystems) were used to synthesize double-stranded cDNA. The number of transcripts present in biological replicates each of WT, OE and AS seedlings, with or without BA and DMSO, was determined from three independent replicates. Fold induction of the transcripts was calculated according to the manufacturer's instructions (ABI Prism 7700 Sequence Detection System, User Bulletin #2).

SMILES: c1ccc(CNc2ncnc3nc[nH]c23)cc1 [benzyladenine]
- ARR6 fold change (BA 0.01 μM, 5 min, AS1, ↑ up): 4.12↑
- ARR6 fold change (BA 0.01 μM, 5 min, AS8, ↑ up): 7.1↑
- ARR6 fold change (BA 0.01 μM, 5 min, AS21, ↑ up): 9.2↑
- ARR6 fold change (BA 0.01 μM, 5 min, OE1, ↓ down): 5.51↓
- ARR6 fold change (BA 0.01 μM, 5 min, OE12, ↓ down): 6.87↓
- ARR6 fold change (BA 0.01 μM, 5 min, OE18, ↓ down): 8.56↓
- ARR6 fold change (BA 0.01 μM, 5 min, Wild type, ↑ up): 4.13↑
- ARR6 fold change (BA 0.01 μM, 15 min, AS1, ↑ up): 4.57↑
- ARR6 fold change (BA 0.01 μM, 15 min, AS8, ↑ up): 7.41↑
- ARR6 fold change (BA 0.01 μM, 15 min, AS21, ↑ up): 9.58↑
- ARR6 fold change (BA 0.01 μM, 15 min, OE1, ↓ down): 5.33↓
- ARR6 fold change (BA 0.01 μM, 15 min, OE12, ↓ down): 6.56↓
- ARR6 fold change (BA 0.01 μM, 15 min, OE18, ↓ down): 8.32↓
- ARR6 fold change (BA 0.01 μM, 15 min, Wild type, ↑ up): 4.67↑
- ARR6 fold change (BA 0.01 μM, 30 min, AS1, ↑ up): 5.98↑
- ARR6 fold change (BA 0.01 μM, 30 min, AS8, ↑ up): 7.86↑
- ARR6 fold change (BA 0.01 μM, 30 min, AS21, ↑ up): 9.79↑
- ARR6 fold change (BA 0.01 μM, 30 min, OE1, ↓ down): 5.11↓
- ARR6 fold change (BA 0.01 μM, 30 min, OE12, ↓ down): 6.13↓
- ARR6 fold change (BA 0.01 μM, 30 min, OE18, ↓ down): 8.13↓
- ARR6 fold change (BA 0.01 μM, 30 min, Wild type, ↑ up): 4.98↑
- ARR6 fold change (BA 0.01 μM, 1 h, AS1, ↑ up): 6.2↑
- ARR6 fold change (BA 0.01 μM, 1 h, AS8, ↑ up): 7.98↑
- ARR6 fold change (BA 0.01 μM, 1 h, AS21, ↑ up): 10.15↑
- ARR6 fold change (BA 0.01 μM, 1 h, OE1, ↓ down): 4.91↓
- ARR6 fold change (BA 0.01 μM, 1 h, OE12, ↓ down): 5.06↓
- ARR6 fold change (BA 0.01 μM, 1 h, OE18, ↓ down): 7.98↓
- ARR6 fold change (BA 0.01 μM, 1 h, Wild type, ↑ up): 5.15↑
- ARR6 fold change (BA 0.1 μM, 5 min, AS1, ↑ up): 6.14↑
- ARR6 fold change (BA 0.1 μM, 5 min, AS8, ↑ up): 8.12↑
- ARR6 fold change (BA 0.1 μM, 5 min, AS21, ↑ up): 10.31↑
- ARR6 fold change (BA 0.1 μM, 5 min, OE1, ↓ down): 5.1↓
- ARR6 fold change (BA 0.1 μM, 5 min, OE12, ↓ down): 5.91↓
- ARR6 fold change (BA 0.1 μM, 5 min, OE18, ↓ down): 7.89↓
- ARR6 fold change (BA 0.1 μM, 5 min, Wild type, ↑ up): 5.36↑
- ARR6 fold change (BA 0.1 μM, 15 min, AS1, ↑ up): 6.39↑
- ARR6 fold change (BA 0.1 μM, 15 min, AS8, ↑ up): 8.32↑
- ARR6 fold change (BA 0.1 μM, 15 min, AS21, ↑ up): 10.46↑
- ARR6 fold change (BA 0.1 μM, 15 min, OE1, ↓ down): 5.04↓
- ARR6 fold change (BA 0.1 μM, 15 min, OE12, ↓ down): 5.71↓
- ARR6 fold change (BA 0.1 μM, 15 min, OE18, ↓ down): 5.72↓
- ARR6 fold change (BA 0.1 μM, 15 min, Wild type, ↑ up): 5.58↑
- ARR6 fold change (BA 0.1 μM, 30 min, AS1, ↑ up): 6.69↑
- ARR6 fold change (BA 0.1 μM, 30 min, AS8, ↑ up): 8.57↑
- ARR6 fold change (BA 0.1 μM, 30 min, AS21, ↑ up): 10.68↑
- ARR6 fold change (BA 0.1 μM, 30 min, OE1, ↓ down): 4.9↓
- ARR6 fold change (BA 0.1 μM, 30 min, OE12, ↓ down): 5.59↓
- ARR6 fold change (BA 0.1 μM, 30 min, OE18, ↓ down): 5.36↓
- ARR6 fold change (BA 0.1 μM, 30 min, Wild type, ↑ up): 5.89↑
- ARR6 fold change (BA 0.1 μM, 1 h, AS1, ↑ up): 6.98↑
- ARR6 fold change (BA 0.1 μM, 1 h, AS8, ↑ up): 8.99↑
- ARR6 fold change (BA 0.1 μM, 1 h, AS21, ↑ up): 10.97↑
- ARR6 fold change (BA 0.1 μM, 1 h, OE1, ↓ down): 4.67↓
- ARR6 fold change (BA 0.1 μM, 1 h, OE12, ↓ down): 4.61↓
- ARR6 fold change (BA 0.1 μM, 1 h, OE18, ↓ down): 5.01↓
- ARR6 fold change (BA 0.1 μM, 1 h, Wild type, ↑ up): 5.99↑
- ARR6 fold change (BA 1.0 μM, 5 min, AS1, ↑ up): 7.43↑
- ARR6 fold change (BA 1.0 μM, 5 min, AS8, ↑ up): 9.01↑
- ARR6 fold change (BA 1.0 μM, 5 min, AS21, ↑ up): 10.99↑
- ARR6 fold change (BA 1.0 μM, 5 min, OE1, ↓ down): 4.96↓
- ARR6 fold change (BA 1.0 μM, 5 min, OE12, ↓ down): 5.19↓
- ARR6 fold change (BA 1.0 μM, 5 min, OE18, ↓ down): 4.36↓
- ARR6 fold change (BA 1.0 μM, 5 min, Wild type, ↑ up): 6.1↑
- ARR6 fold change (BA 1.0 μM, 15 min, AS1, ↑ up): 7.68↑
- ARR6 fold change (BA 1.0 μM, 15 min, AS8, ↑ up): 9.43↑
- ARR6 fold change (BA 1.0 μM, 15 min, AS21, ↑ up): 11.12↑
- ARR6 fold change (BA 1.0 μM, 15 min, OE1, ↓ down): 4.71↓
- ARR6 fold change (BA 1.0 μM, 15 min, OE12, ↓ down): 5.01↓
- ARR6 fold change (BA 1.0 μM, 15 min, OE18, ↓ down): 4.21↓
- ARR6 fold change (BA 1.0 μM, 15 min, Wild type, ↑ up): 6.31↑
- ARR6 fold change (BA 1.0 μM, 30 min, AS1, ↑ up): 7.73↑
- ARR6 fold change (BA 1.0 μM, 30 min, AS8, ↑ up): 9.69↑
- ARR6 fold change (BA 1.0 μM, 30 min, AS21, ↑ up): 11.35↑
- ARR6 fold change (BA 1.0 μM, 30 min, OE1, ↓ down): 4.49↓
- ARR6 fold change (BA 1.0 μM, 30 min, OE12, ↓ down): 4.89↓
- ARR6 fold change (BA 1.0 μM, 30 min, OE18, ↓ down): 4.01↓
- ARR6 fold change (BA 1.0 μM, 30 min, Wild type, ↑ up): 6.59↑
- ARR6 fold change (BA 1.0 μM, 1 h, AS1, ↑ up): 8.01↑
- ARR6 fold change (BA 1.0 μM, 1 h, AS8, ↑ up): 9.93↑
- ARR6 fold change (BA 1.0 μM, 1 h, AS21, ↑ up): 11.76↑
- ARR6 fold change (BA 1.0 μM, 1 h, OE1, ↓ down): 3.21↓
- ARR6 fold change (BA 1.0 μM, 1 h, OE12, ↓ down): 3.56↓
- ARR6 fold change (BA 1.0 μM, 1 h, OE18, ↓ down): 3.01↓
- ARR6 fold change (BA 1.0 μM, 1 h, Wild type, ↑ up): 6.87↑
- ARR6 fold change (BA 5.0 μM, 5 min, AS1, ↑ up): 7.98↑
- ARR6 fold change (BA 5.0 μM, 5 min, AS8, ↑ up): 9.98↑
- ARR6 fold change (BA 5.0 μM, 5 min, AS21, ↑ up): 11.43↑
- ARR6 fold change (BA 5.0 μM, 5 min, OE1, ↓ down): 4.19↓
- ARR6 fold change (BA 5.0 μM, 5 min, OE12, ↓ down): 4.67↓
- ARR6 fold change (BA 5.0 μM, 5 min, OE18, ↓ down): 3.45↓
- ARR6 fold change (BA 5.0 μM, 5 min, Wild type, ↑ up): 7.52↑
- ARR6 fold change (BA 5.0 μM, 15 min, AS1, ↑ up): 8.01↑
- ARR6 fold change (BA 5.0 μM, 15 min, AS8, ↑ up): 10.07↑
- ARR6 fold change (BA 5.0 μM, 15 min, AS21, ↑ up): 11.56↑
- ARR6 fold change (BA 5.0 μM, 15 min, OE1, ↓ down): 4.01↓
- ARR6 fold change (BA 5.0 μM, 15 min, OE12, ↓ down): 4.62↓
- ARR6 fold change (BA 5.0 μM, 15 min, OE18, ↓ down): 3.18↓
- ARR6 fold change (BA 5.0 μM, 15 min, Wild type, ↑ up): 7.69↑
- ARR6 fold change (BA 5.0 μM, 30 min, AS1, ↑ up): 8.23↑
- ARR6 fold change (BA 5.0 μM, 30 min, Wild type, ↑ up): 7.89↑

Reference: patent US9290777B2, “Putative cytokinin receptor and methods for use thereof” (NATIONAL UNIVERSITY OF SINGAPORE, priority 2007, dated 2016)
